The results in this text go back to article doi:10.1101/2020.01.28.923938v1 (biorxiv, 2020).

The assay concerns the target CYP2D6 (Homo sapiens, UniProt P10635). The assay is described as follows: in situ kinetics of dextrorphan formation in HLM, ADE-OPI-MS. It is filed as biochemical.

CYP2D6, sequence (P10635 whole entry): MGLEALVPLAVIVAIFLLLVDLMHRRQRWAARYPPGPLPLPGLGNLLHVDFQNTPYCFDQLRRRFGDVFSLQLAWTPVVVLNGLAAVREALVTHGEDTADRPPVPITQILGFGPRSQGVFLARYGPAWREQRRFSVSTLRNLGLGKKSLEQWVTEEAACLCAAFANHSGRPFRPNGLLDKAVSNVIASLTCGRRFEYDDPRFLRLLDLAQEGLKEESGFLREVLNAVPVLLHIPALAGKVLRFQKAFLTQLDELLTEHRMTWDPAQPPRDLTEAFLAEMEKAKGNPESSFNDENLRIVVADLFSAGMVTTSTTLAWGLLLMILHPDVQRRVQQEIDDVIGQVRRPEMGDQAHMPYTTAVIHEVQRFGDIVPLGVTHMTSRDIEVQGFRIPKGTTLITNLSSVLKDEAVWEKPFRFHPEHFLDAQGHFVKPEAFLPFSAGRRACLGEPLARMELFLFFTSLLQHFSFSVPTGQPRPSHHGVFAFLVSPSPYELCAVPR

As a reminder, the Km is the concentration of substrate that gives half-maximal velocity. On to `COc1ccc2c(c1)[C@]13CCCC[C@@H]1[C@H](C2)N(C)CC3` [dextromethorphan], for which the Km turned out to be 3.79 µM.
